The test system of series [1] is Periplaneta americana. Description: Neuroblocking potency in Periplaneta americana (American cockroach) central nerve cord. In kind it is functional.
Series [2] concerns Aulacophora. The experiment in a line: Insecticidal activity against Aulacophora femoralis (cucurbit leaf beetle) at 20 ppm. In kind it is functional.
The subject of series [3] is Aulacophora. The experiment in a line: Insecticidal activity against Aulacophora femoralis (cucurbit leaf beetle) at 100 ppm. In kind it is functional.
The test system of series [4] is Myzus persicae. Description: Insecticidal activity against Myzus persicae (green peach aphid) at 100 ppm. In kind it is functional.
For series [5], the system named is Myzus persicae. The experiment in a line: Insecticidal activity against Myzus persicae (green peach aphid) at 20 ppm. In kind it is functional.
In series [6] the test system is Spodoptera litura. Description: Insecticidal activity against Spodoptera litura at 500 ppm. In kind it is functional.
Series [7] deals with Spodoptera litura. The experiment in a line: Insecticidal activity against Spodoptera litura at 100 ppm. In kind it is functional.
Series [8] deals with Myzus persicae. Description: Insecticidal activity against Myzus persicae (green peach aphid) at 500 ppm. In kind it is functional.
Series [9] relates to Aulacophora. The experiment in a line: Insecticidal activity against Aulacophora femoralis (cucurbit leaf beetle) at 500 ppm. In kind it is functional.
The nature of series [10]: Lipophilicity, log P of the compound. The note with it: octanol/water. In kind it is physicochemical.
Series [11] concerns Periplaneta americana. The experiment in a line: Insecticidal activity against Periplaneta americana (American cockroach) central nerve cord. In kind it is functional.
Series [12] concerns Spodoptera litura. The experiment in a line: Insecticidal activity against Spodoptera litura at 20 ppm. In kind it is functional.

For `O=[N+]([O-])/C=C1\NCCN1Cc1ccc(Cl)nc1`, the “log(1/BC)” value in the series on Periplaneta americana [1] is on record as 5.02.

Take `O=[N+]([O-])/N=C1\N(CCCF)CCN1Cc1ccc(Cl)nc1`: the Activity in the series on Aulacophora [2] is on record as 100%; in the series on Aulacophora [3], 100%; with Myzus persicae [4], 100%; with Myzus persicae [5] it was 100%; with Spodoptera litura [6], 0%.

In the case of `O=[N+]([O-])/N=C1\NCCN1CCCCF`, the Activity with Myzus persicae [4] amounted to 60%; in the series with Myzus persicae [5] it was 0%; with Spodoptera litura [7] it was 0%; in the series on Spodoptera litura [6], 20%; with Myzus persicae [8] it was 97%.

For the molecule `O=[N+]([O-])/N=C1\NCCN1CCCF`, the Activity came to 0% in the series with Aulacophora [2]; 100% in the series on Aulacophora [3]; 90% with Myzus persicae [4]; 60% with Myzus persicae [5]; 20% in the series with Spodoptera litura [7]; 100% in the series with Aulacophora [9]. Moreover, the Activity in the series with Spodoptera litura [6] is 100%; in the series with Myzus persicae [8], 97%.

Regarding `O=[N+]([O-])/N=C1\NCCN1CCCCl`, the Activity in the series on Aulacophora [2] amounted to 50%; in the series with Aulacophora [3], 100%; in the series with Myzus persicae [4], 0%; in the series on Aulacophora [9] it was 100%; with Spodoptera litura [6], 0%; in the series on Myzus persicae [8], 97%.

On to `O=[N+]([O-])/N=C1\NCCN1CCF`, for which the Activity in the series on Aulacophora [9] worked out at 0%; in the series with Spodoptera litura [6] it was 0%; in the series on Myzus persicae [8], 60%.

Take `CCCN1CCN/C1=N\[N+](=O)[O-]`: the Activity in the series with Aulacophora [9] amounted to 0%; in the series on Spodoptera litura [6], 0%; in the series with Myzus persicae [8], 60%.

Turning to `O=[N+]([O-])/N=C1\NCCCN1Cc1ccc(Cl)nc1`, the “log(1/BC)” value in the series with Periplaneta americana [1] was 5.35.

As for `O=[N+]([O-])/C=C1\SCCN1Cc1ccc(Cl)nc1`, the “log(1/BC)” value with Periplaneta americana [1] amounted to 6.19.

Take `CN1CCN(Cc2ccc(Cl)nc2)/C1=N/[N+](=O)[O-]`: in the series with Periplaneta americana [1], the “log(1/BC)” value is reported as 3.81.

With `O=[N+]([O-])/N=c1\ccccn1Cc1ccc(Cl)nc1`, in the series on Periplaneta americana [1], the “log(1/BC)” value was 5.09.

Turning to `O=[N+]([O-])/N=c1\ccccn1Cc1cnc(Cl)s1`, the “log(1/BC)” value with Periplaneta americana [1] came to 5.75.

On to `O=[N+]([O-])/C=C1\CCCN1Cc1ccc(Cl)nc1`, for which the “log(1/BC)” value with Periplaneta americana [1] is given as 6.43.

As for `O=[N+]([O-])/C=C1\NCCN1Cc1cnc(Cl)s1`, the “log(1/BC)” value with Periplaneta americana [1] was found to be 5.73.

`O=[N+]([O-])/N=C1\SCCN1Cc1cnc(Cl)s1`: the “log(1/BC)” value in the series with Periplaneta americana [1] was 6.31.

As for `O=[N+]([O-])/C=C1\CCCN1Cc1cnc(Cl)s1`, the lipophilicity (logP) (usually the decadic logarithm of the partition coefficient of the neutral form, usually between octanol and water) in series [10] worked out at 0.64. Further, the “log(1/BC)” value in the series with Periplaneta americana [1] is on record as 6.

As to `CN1CCN(Cc2ccc(Cl)nc2)/C1=C/[N+](=O)[O-]`, the “log(1/BC)” value in the series with Periplaneta americana [1] turned out to be 3.84.

On to `O=[N+]([O-])/N=c1\[nH]ccn1Cc1cnc(Cl)s1`, for which the “log(1/BC)” value with Periplaneta americana [1] turned out to be 4.61.

Consider `O=[N+]([O-])/N=c1\sccn1Cc1cnc(Cl)s1`, for which the “log(1/BC)” value in the series on Periplaneta americana [1] is listed as 5.79.

As to `O=[N+]([O-])/N=C1/N(CCCCN2CCN(Cc3ccc(Cl)nc3)/C2=N/[N+](=O)[O-])CCN1Cc1ccc(Cl)nc1`, the Activity in the series on Periplaneta americana [11] stood at 11 nmol.

The molecule `O=[N+]([O-])/N=C1/N(CCCCCCCCCN2CCN(Cc3ccc(Cl)nc3)/C2=N/[N+](=O)[O-])CCN1Cc1ccc(Cl)nc1` showed an Activity in the series with Periplaneta americana [11] of 2.8 nmol.

In the series with Periplaneta americana [11], `O=[N+]([O-])/N=C1/N(CCCCCN2CCN(Cc3ccc(Cl)nc3)/C2=N/[N+](=O)[O-])CCN1Cc1ccc(Cl)nc1` gave an Activity of 3.9 nmol.

On to `O=[N+]([O-])/N=C1/N(CCCN2CCN(Cc3ccc(Cl)nc3)/C2=N/[N+](=O)[O-])CCN1Cc1ccc(Cl)nc1`, for which the Activity in the series on Periplaneta americana [11] was determined as 4.9 nmol.

`O=[N+]([O-])/N=C1/N(CCCCCCCCCCN2CCN(Cc3ccc(Cl)nc3)/C2=N/[N+](=O)[O-])CCN1Cc1ccc(Cl)nc1` displayed an Activity in the series on Periplaneta americana [11] of 3.7 nmol.

Regarding `O=[N+]([O-])/N=C1\NCCN1CCC(F)(F)F`, the Activity in the series with Aulacophora [3] stood at 50%; in the series with Aulacophora [9] it was 100%; in the series with Spodoptera litura [6] it was 30%; with Myzus persicae [8], 0%.

For `O=[N+]([O-])/N=C1\NCCN1CCC(F)=C(F)F`, the Activity in the series with Aulacophora [9], in the series on Spodoptera litura [6] and in the series with Myzus persicae [8] was 0% each time.

Take `O=[N+]([O-])/N=C1\N(CCN2CCN(Cc3ccc(Cl)nc3)/C2=N\[N+](=O)[O-])CCN1Cc1ccc(Cl)nc1`: in the series on Periplaneta americana [11], the Activity was determined as 8.3 nmol.

On to `O=[N+]([O-])/N=C1/N(CCCCCCCCN2CCN(Cc3ccc(Cl)nc3)/C2=N/[N+](=O)[O-])CCN1Cc1ccc(Cl)nc1`, for which, in the series with Periplaneta americana [11], the Activity worked out at 4.5 nmol.

With `O=[N+]([O-])/N=c1\sccn1Cc1ccc(Cl)nc1`, in the series on Periplaneta americana [1], the “log(1/BC)” value came to 5.68.

Regarding `O=[N+]([O-])Nc1nccn1Cc1ccc(Cl)nc1` [DEHYDROIMIDACLOPRID], in the series on Periplaneta americana [1], the “log(1/BC)” value is given as 4.31.

The molecule `O=[N+]([O-])/N=C1/N(CCCCCCCN2CCN(Cc3ccc(Cl)nc3)/C2=N/[N+](=O)[O-])CCN1Cc1ccc(Cl)nc1` [Heptamethylene 1,7-bis-imadacloprid] showed an Activity with Periplaneta americana [11] of 2.8 nmol.

`O=[N+]([O-])/N=C1/N(CCCCCCN2CCN(Cc3ccc(Cl)nc3)/C2=N/[N+](=O)[O-])CCN1Cc1ccc(Cl)nc1` [Hexamethylene 1,6-bis-imadacloprid]: the Activity with Periplaneta americana [11] is 2.2 nmol.

In the case of `O=[N+]([O-])/N=C1\NCCN1Cc1ccc(Cl)nc1` [IMIDACLOPRID], the Activity turned out to be 2.5 nmol in the series on Periplaneta americana [11]; 100% in the series with Aulacophora [2]; 40% with Spodoptera litura [12]; 100% in the series with Aulacophora [3]; 100% in the series on Myzus persicae [4]; 100% with Myzus persicae [5]. In addition, the Activity in the series with Spodoptera litura [7] worked out at 80%; in the series with Aulacophora [9] it was 100%; in the series with Spodoptera litura [6], 100%; in the series with Myzus persicae [8], 100%. The “log(1/BC)” value in the series on Periplaneta americana [1] was determined as 5.64.

With `O=[N+]([O-])/N=C1\NCCN1Cc1cnc(Cl)s1` [IMIDACLOTHIZ], the “log(1/BC)” value in the series on Periplaneta americana [1] amounted to 5.97.

The record behind these values is ChEMBL document CHEMBL3045288, “Pharmacophore of neonicotinoid insecticides” (J Pestic Sci, 2008).
